What was measured:
Format in all cases: functional
Staphylococcus aureus [1] = experiment: Antimicrobial activity against methicillin-resistant Staphylococcus aureus 5 at 100 ug/disk after 24 hrs by disk diffusion method; details: read-out: IZ
Helicobacter pylori [2] = experiment: Antimicrobial activity against Helicobacter pylori ATCC 43504 at 100 ug/disk after 4 days by disk diffusion method; details: ATCC 43504, 96 h, read-out: IZ
Staphylococcus aureus [3] = experiment: Antimicrobial activity against methicillin-resistant Staphylococcus aureus COL at 100 ug/disk after 24 hrs by disk diffusion method; details: read-out: IZ
Helicobacter pylori [4] = experiment: Antimicrobial activity against Helicobacter pylori ATCC 43504 at 0.25 ug/disk after 4 days by disk diffusion method; details: ATCC 43504, 96 h, read-out: IZ
Staphylococcus aureus [5] = experiment: Antimicrobial activity against methicillin-resistant Staphylococcus aureus COL at 20 ug/disk after 24 hrs by disk diffusion method; details: read-out: IZ
Staphylococcus aureus [6] = experiment: Antimicrobial activity against methicillin-resistant Staphylococcus aureus 5 at 20 ug/disk after 24 hrs by disk diffusion method; details: read-out: IZ

Structure (SMILES)	zone of inhibition at 100 µg/disc (Staphylococcus aureus [1])	zone of inhibition at 100 µg/disc (Helicobacter pylori [2])	zone of inhibition at 100 µg/disc (Staphylococcus aureus [3])	zone of inhibition at 0.25 µg/disc (Helicobacter pylori [4])	zone of inhibition at 20 µg/disc (Staphylococcus aureus [5])	zone of inhibition at 20 µg/disc (Staphylococcus aureus [6])
COc1c(O)c(OC)c2oc(-c3ccc(O)cc3)cc(=O)c2c1O	23.8 mm	10.5 mm	12.5 mm	–	–	–
CC1(C)S[C@@H]2[C@H](NC(=O)[C@H](N)c3ccc(O)cc3)C(=O)N2[C@H]1C(=O)O [AMOXICILLIN]	–	–	–	33 mm	–	–
CC(=O)OCC1=C(C(=O)O)N2C(=O)[C@@H](NC(=O)CSc3ccncc3)[C@H]2SC1 [CEPHAPIRIN]	–	–	–	–	8.2 mm	9.4 mm
COc1cc(-c2cc(=O)c3c(O)c(OC)c(O)c(OC)c3o2)ccc1O [SUDACHITIN]	25.4 mm	14 mm	12 mm	–	–	–

Source: ChEMBL document CHEMBL1158039, “Chemical constituents from the peels of Citrus sudachi” (2006)
